Patent US11071300B2, “Pesticidally active pyrazole derivatives” (SYNGENTA PARTICIPATIONS AG, priority 2017, dated 2021)
Like-named read-outs stand apart in the source and are kept apart here.

Assays:
Type in all cases: in vivo
Spodoptera littoralis = Spodoptera littoralis (Egyptian cotton leaf worm) leaf disc test; conditions: foliar, 72 h, application rate 200 ppm, cotton leaf discs sprayed, L1 larvae, 3 days after infestation, read-out: control (at least one of mortality, anti-feedant effect, growth inhibition)
Method: Spodoptera littoralis (Egyptian Cotton Leaf Worm)
Cotton leaf discs were placed on agar in 24-well microtiter plates and sprayed with aqueous test solutions prepared from 10′000 ppm DMSO stock solutions. After drying the leaf discs were infested with five L1 larvae. The samples were assessed for mortality, anti-feedant effect, and growth inhibition in comparison to untreated samples 3 days after infestation. Control of Spodoptera littoralis by a test sample is when at least one of mortality, anti-feedant effect, and growth inhibition is higher than the untreated sample.

Plutella xylostella = Plutella xylostella (diamond back moth) artificial diet test; conditions: 120 h, read-out: control (mortality and growth inhibition)
Method: Plutella xylostella (Diamond Back Moth):
(§1) 24-well microtiter plates with artificial diet were treated with aqueous test solutions prepared from 10′000 ppm DMSO stock solutions by pipetting. After drying, the plates were infested with L2 larvae (10 to 15 per well). The samples were assessed for mortality and growth inhibition in comparison to untreated samples 5 days after infestation.

Diabrotica Balteata = assay: Diabrotica balteata (corn root worm) maize sprout test; conditions: 96 h, read-out: control (mortality and growth inhibition)
Method: Diabrotica Balteata, (Corn Root Worm)
as §1, with “Maize sprouts, placed on an agar layer in 24-well” for “24-well”, “plates” for “plates with artificial diet”, “spraying.” for “pipetting.”, “(6” for “(10”, “10” for “15”, “4” for “5”

Thrips tabaci = Thrips tabaci (onion thrips) leaf disc test; conditions: foliar, 144 h, read-out: control (mortality)
Method: Thrips tabaci (Onion Thrips):
(§2) Sunflower leaf discs were placed on agar in 24-well microtiter plates and sprayed with aqueous test solutions prepared from 10′000 ppm DMSO stock solutions. After drying the leaf discs were infested with a thrips population of mixed ages. The samples were assessed for mortality 6 days after infestation.

Tetranychus urticae = Tetranychus urticae (two-spotted spider mite) leaf disc test; conditions: foliar, 192 h, application rate 200 ppm, bean leaf discs sprayed, 8 days after infestation, read-out: control (mortality on mixed population, mobile stages)
Method: Tetranychus urticae (Two-Spotted Spider Mite):
as §2, with “Bean” for “Sunflower”, “discs” for “discs were placed”, “were” for “and”, “mite” for “thrips”, “on mixed population (mobile stages) 8” for “6”

Euschistus heros = Euschistus heros (neotropical brown stink bug) soybean leaf test; conditions: 120 h, read-out: control (mortality and growth inhibition)
Method: Euschistus heros (Neotropical Brown Stink Bug):
Soybean leaves on agar in 24-well microtiter plates were sprayed with aqueous test solutions prepared from 10′000 ppm DMSO stock solutions. After drying the leaves were infested with N2 nymphs. The samples were assessed for mortality and growth inhibition in comparison to untreated samples 5 days after infestation.

Myzus persicae = Myzus persicae (green peach aphid) leaf disc test; conditions: foliar, 144 h, application rate 200 ppm, sunflower leaf discs sprayed, mixed ages, 6 DAT, read-out: control (mortality)
Method: Myzus persicae (Green Peach Aphid):
Sunflower leaf discs were placed on agar in a 24-well microtiter plate and sprayed with test solutions at an application rate of 200 ppm. After drying, the leaf discs were infested with an aphid population of mixed ages. After an incubation period of 6 DAT, samples were checked for mortality.

[1] = application rate 200 ppm, artificial diet, L2 larvae, 5 days after infestation
[2] = application rate 200 ppm, maize sprouts sprayed, L2 larvae, 4 days after infestation
[3] = application rate 200 ppm, sunflower leaf discs sprayed, mixed ages, 6 days after infestation
[4] = application rate 200 ppm, soybean leaves sprayed, N2 nymphs, 5 days after infestation

Cn1nc(OS(=O)(=O)C(F)(C(F)(F)F)C(F)(F)F)c(C(F)(F)F)c1-n1cc(-c2ccc(Cl)c(C(=O)N(C=O)C3(C#N)CC3)c2)cn1 [Compound 57, [5-[4-[4-chloro-3-[(1-cyanocyclopropyl)-formyl-carbamoyl]phenyl]pyrazol-1-yl]-1-methyl-4-(trifluoromethyl)pyrazol-3-yl] 1,1,1,2,3,3,3-heptafluoropropane-2-sulfonate]
≥ 80%: percent control (mortality, anti-feedant effect or growth inhibition) at 200 ppm (Spodoptera littoralis) | mortality at 200 ppm (Plutella xylostella; [1]) | mortality at 200 ppm (Diabrotica Balteata; [2]) | mortality at 200 ppm (Thrips tabaci; [3]) | mortality at 200 ppm (Tetranychus urticae) | mortality at 200 ppm (Euschistus heros; [4]) | mortality at 200 ppm (Myzus persicae)

CCN(C(=O)c1cc(-c2cnn(-c3c(C(F)(F)F)c(OS(=O)(=O)C(F)(C(F)(F)F)C(F)(F)F)nn3C)c2)ccc1Cl)C1(C#N)CC1 [Compound 45, [5-[4-[4-chloro-3-[(1-cyanocyclopropyl)-ethyl-carbamoyl]phenyl]pyrazol-1-yl]-1-methyl-4-(trifluoromethyl)pyrazol-3-yl] 1,1,1,2,3,3,3-heptafluoropropane-2-sulfonate]
≥ 80%: percent control (mortality, anti-feedant effect or growth inhibition) at 200 ppm (Spodoptera littoralis) | mortality at 200 ppm (Plutella xylostella; [1]) | mortality at 200 ppm (Diabrotica Balteata; [2]) | mortality at 200 ppm (Thrips tabaci; [3]) | mortality at 200 ppm (Tetranychus urticae) | mortality at 200 ppm (Euschistus heros; [4]) | mortality at 200 ppm (Myzus persicae)

Cn1nc(OS(=O)(=O)C(F)(C(F)(F)F)C(F)(F)F)c(C(F)(F)F)c1-n1cc(-c2cnc(Cl)c(C(=O)NC3CC3)c2)cn1 [Compound 21, [5-[4-[6-chloro-5-(cyclopropylcarbamoyl)-3-pyridyl]pyrazol-1-yl]-1-methyl-4-(trifluoromethyl)pyrazol-3-yl] 1,1,1,2,3,3,3-heptafluoropropane-2-sulfonate]
≥ 80%: percent control (mortality, anti-feedant effect or growth inhibition) at 200 ppm (Spodoptera littoralis) | mortality at 200 ppm (Plutella xylostella; [1]) | mortality at 200 ppm (Diabrotica Balteata; [2]) | mortality at 200 ppm (Thrips tabaci; [3]) | mortality at 200 ppm (Tetranychus urticae) | mortality at 200 ppm (Euschistus heros; [4]) | mortality at 200 ppm (Myzus persicae)

C#CCN(C(=O)c1cc(-c2cnn(-c3c(C(F)(F)F)c(OS(=O)(=O)C(F)(C(F)(F)F)C(F)(F)F)nn3C)c2)ccc1Cl)C1(C#N)CC1 [Compound 50, [5-[4-[4-chloro-3-[(1-cyanocyclopropyl)-prop-2-ynyl-carbamoyl]phenyl]pyrazol-1-yl]-1-methyl-4-(trifluoromethyl)pyrazol-3-yl] 1,1,1,2,3,3,3-heptafluoropropane-2-sulfonate]
≥ 80%: percent control (mortality, anti-feedant effect or growth inhibition) at 200 ppm (Spodoptera littoralis) | mortality at 200 ppm (Plutella xylostella; [1]) | mortality at 200 ppm (Diabrotica Balteata; [2]) | mortality at 200 ppm (Thrips tabaci; [3]) | mortality at 200 ppm (Tetranychus urticae) | mortality at 200 ppm (Euschistus heros; [4]) | mortality at 200 ppm (Myzus persicae)

CCN(C(=O)c1cc(-c2cnn(-c3c(C(F)(F)F)c(OS(=O)(=O)C(F)(C(F)(F)F)C(F)(F)F)nn3C)c2)ccc1Cl)C1CC1 [Compound 12, [5-[4-[4-chloro-3-[cyclopropyl(ethyl)carbamoyl]phenyl]pyrazol-1-yl]-1-methyl-4-(trifluoromethyl)pyrazol-3-yl] 1,1,1,2,3,3,3-heptafluoropropane-2-sulfonate]
≥ 80%: percent control (mortality, anti-feedant effect or growth inhibition) at 200 ppm (Spodoptera littoralis) | mortality at 200 ppm (Plutella xylostella; [1]) | mortality at 200 ppm (Diabrotica Balteata; [2]) | mortality at 200 ppm (Thrips tabaci; [3]) | mortality at 200 ppm (Tetranychus urticae) | mortality at 200 ppm (Euschistus heros; [4]) | mortality at 200 ppm (Myzus persicae)

CCN(C(=O)c1cc(-c2cnn(-c3c(C(F)(F)F)c(OS(=O)(=O)C(F)(F)C(F)(F)C(F)(F)C(F)(F)F)nn3C)c2)cnc1Cl)C1(C#N)CC1 [Compound 32, [5-[4-[6-chloro-5-[(1-cyanocyclopropyl)-ethyl-carbamoyl]-3-pyridyl]pyrazol-1-yl]-1-methyl-4-(trifluoromethyl)pyrazol-3-yl] 1,1,2,2,3,3,4,4,4-nonafluorobutane-1-sulfonate]
≥ 80%: percent control (mortality, anti-feedant effect or growth inhibition) at 200 ppm (Spodoptera littoralis) | mortality at 200 ppm (Plutella xylostella) | mortality at 200 ppm (Diabrotica Balteata) | mortality at 200 ppm (Thrips tabaci) | mortality at 200 ppm (Euschistus heros)

Cn1nc(OS(=O)(=O)C(F)(F)C(F)(F)F)c(C(F)(F)F)c1-n1cc(-c2ccc(Cl)c(C(=O)NC3(C#N)CC3)c2)cn1 [Compound 1, [5-[4-[4-chloro-3-[(1-cyanocyclopropyl)carbamoyl]phenyl]pyrazol-1-yl]-1-methyl-4-(trifluoromethyl)pyrazol-3-yl] 1,1,2,2,2-pentafluoroethanesulfonate]
≥ 80%: percent control (mortality, anti-feedant effect or growth inhibition) at 200 ppm (Spodoptera littoralis) | mortality at 200 ppm (Plutella xylostella; [1]) | mortality at 200 ppm (Diabrotica Balteata; [2]) | mortality at 200 ppm (Tetranychus urticae) | mortality at 200 ppm (Euschistus heros; [4])

Cn1nc(OS(=O)(=O)C(F)(C(F)(F)F)C(F)(F)F)c(C(F)(F)F)c1-n1cc(-c2ccc(Cl)c(C(=O)NC3(C(F)(F)F)CC3)c2)cn1 [Compound 65, [5-[4-[4-chloro-3-[[1-(trifluoromethyl)cyclopropyl]carbamoyl]phenyl]pyrazol-1-yl]-1-methyl-4-(trifluoromethyl)pyrazol-3-yl] 1,1,1,2,3,3,3-heptafluoropropane-2-sulfonate]
≥ 80%: percent control (mortality, anti-feedant effect or growth inhibition) at 200 ppm (Spodoptera littoralis) | mortality at 200 ppm (Plutella xylostella; [1]) | mortality at 200 ppm (Tetranychus urticae) | mortality at 200 ppm (Euschistus heros; [4])

Cn1nc(OS(=O)(=O)C(F)(C(F)(F)F)C(F)(F)F)c(C(F)(F)F)c1-n1cc(-c2ccc(Cl)c(C(=O)N[C@H]3C[C@@H]3C#N)c2)cn1 (racemic) [Compound 69, (rac)-[5-[4-[4-chloro-3-[[(1S,2S)-2-cyanocyclopropyl]carbamoyl]phenyl]pyrazol-1-yl]-1-methyl-4-(trifluoromethyl)pyrazol-3-yl] 1,1,1,2,3,3,3-heptafluoropropane-2-sulfonate]
≥ 80%: percent control (mortality, anti-feedant effect or growth inhibition) at 200 ppm (Spodoptera littoralis) | mortality at 200 ppm (Plutella xylostella; [1]) | mortality at 200 ppm (Tetranychus urticae) | mortality at 200 ppm (Euschistus heros; [4]) | mortality at 200 ppm (Myzus persicae)

CCN(C(=O)c1cc(-c2cc(-c3c(C(F)(F)F)c(OS(=O)(=O)C(F)(C(F)(F)F)C(F)(F)F)nn3C)no2)ccc1Cl)C1(C#N)CC1 [Compound 38, [5-[5-[4-chloro-3-[(1-cyanocyclopropyl)-ethyl-carbamoyl]phenyl]isoxazol-3-yl]-1-methyl-4-(trifluoromethyl)pyrazol-3-yl] 1,1,1,2,3,3,3-heptafluoropropane-2-sulfonate]
≥ 80%: percent control (mortality, anti-feedant effect or growth inhibition) at 200 ppm (Spodoptera littoralis) | mortality at 200 ppm (Plutella xylostella; [1]) | mortality at 200 ppm (Tetranychus urticae) | mortality at 200 ppm (Euschistus heros; [4]) | mortality at 200 ppm (Myzus persicae)

CCOCN(C(=O)c1cc(-c2cnn(-c3c(C(F)(F)F)c(OS(=O)(=O)C(F)(C(F)(F)F)C(F)(F)F)nn3C)c2)ccc1Cl)C1(C#N)CC1 [Compound 47, [5-[4-[4-chloro-3-[(1-cyanocyclopropyl)-(ethoxymethyl)carbamoyl]phenyl]pyrazol-1-yl]-1-methyl-4-(trifluoromethyl)pyrazol-3-yl] 1,1,1,2,3,3,3-heptafluoropropane-2-sulfonate]
≥ 80%: percent control (mortality, anti-feedant effect or growth inhibition) at 200 ppm (Spodoptera littoralis) | mortality at 200 ppm (Plutella xylostella; [1]) | mortality at 200 ppm (Diabrotica Balteata; [2]) | mortality at 200 ppm (Thrips tabaci; [3]) | mortality at 200 ppm (Euschistus heros; [4]) | mortality at 200 ppm (Myzus persicae)

Cn1nc(OS(=O)(=O)C(F)(C(F)(F)F)C(F)(F)F)c(C(F)(F)F)c1-n1cc(-c2ccc(Cl)c(C(=O)NC3(CC#N)CC3)c2)cn1 [Compound 68, [5-[4-[4-chloro-3-[[1-(cyanomethyl)cyclopropyl]carbamoyl]phenyl]pyrazol-1-yl]-1-methyl-4-(trifluoromethyl)pyrazol-3-yl] 1,1,1,2,3,3,3-heptafluoropropane-2-sulfonate]
≥ 80%: percent control (mortality, anti-feedant effect or growth inhibition) at 200 ppm (Spodoptera littoralis) | mortality at 200 ppm (Plutella xylostella; [1]) | mortality at 200 ppm (Tetranychus urticae) | mortality at 200 ppm (Euschistus heros; [4])
